Activity calls are given as the source filed them. No cut-off for these calls is given here.
Assays:
[1] = target: [Pyruvate dehydrogenase (acetyl-transferring)] kinase isozyme 2, mitochondrial (Homo sapiens) (UniProt Q15119); experiment: Inhibition of PDK2 (unknown origin) at 1.5 uM incubated for 30 mins followed by substrate addition measured after 60 mins in presence of ATP by ADP-Glo luminescent assay relative to control; settings: time 90.0 min
[2] = target: T1, [Pyruvate dehydrogenase (acetyl-transferring)] kinase isozyme 1, mitochondrial (Homo sapiens, UniProt Q15118); experiment: Inhibition of PDK1 (unknown origin) at 1.5 uM incubated for 30 mins followed by substrate addition measured after 60 mins in presence of ATP by ADP-Glo luminescent assay relative to control; settings: time 90.0 min, values are per cent of control
T1 sequence (Q15118 whole entry): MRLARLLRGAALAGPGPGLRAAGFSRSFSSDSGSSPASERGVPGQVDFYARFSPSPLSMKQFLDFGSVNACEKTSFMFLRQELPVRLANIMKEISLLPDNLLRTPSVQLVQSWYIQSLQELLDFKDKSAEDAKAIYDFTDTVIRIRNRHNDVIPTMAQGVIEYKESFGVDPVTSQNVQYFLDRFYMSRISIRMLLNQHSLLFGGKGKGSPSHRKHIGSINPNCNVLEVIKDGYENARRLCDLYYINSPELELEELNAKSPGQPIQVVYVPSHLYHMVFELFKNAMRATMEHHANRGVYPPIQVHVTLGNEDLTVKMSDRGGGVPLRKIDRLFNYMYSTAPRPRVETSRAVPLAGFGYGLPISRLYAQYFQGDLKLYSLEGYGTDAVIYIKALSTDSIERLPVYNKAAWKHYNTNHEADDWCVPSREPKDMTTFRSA

BXPC-3 [3] = experiment: Antiproliferative activity against human BXPC-3 cells expressing wild type KRAS cultured as 2D spheroids assessed as inhibition of cell growth measured after 72 hrs by MTT assay; type: functional, cell-based; settings: BXPC-3, 72 h
BXPC-3 [4] = experiment: Antiproliferative activity against human BXPC-3 cells expressing wild type KRAS cultured as 3D spheroids assessed as inhibition of cell growth measured after 72 hrs by MTT assay; type: functional, cell-based; settings: BXPC-3, 72 h
PSN1 [5] = experiment: Antiproliferative activity against human PSN1 cells expressing KRAS mutant cultured as 3D spheroids assessed as inhibition of cell growth measured after 72 hrs by MTT assay; type: functional, cell-based; settings: PSN1, 72 h
PSN1 [6] = experiment: Antiproliferative activity against human PSN1 cells expressing KRAS mutant cultured as 2D spheroids assessed as inhibition of cell growth measured after 72 hrs by MTT assay; type: functional, cell-based; settings: PSN1, 72 h
[7] = target: [Pyruvate dehydrogenase (acetyl-transferring)] kinase isozyme 3, mitochondrial (Homo sapiens) (UniProt Q15120); experiment: Inhibition of PDK3 (unknown origin) at 1.5 uM incubated for 30 mins followed by substrate addition measured after 60 mins in presence of ATP by ADP-Glo luminescent assay relative to control; settings: time 90.0 min
Sequence of [Pyruvate dehydrogenase (acetyl-transferring)] kinase isozyme 3, mitochondrial (Homo sapiens) (Q15120 whole entry, looked up): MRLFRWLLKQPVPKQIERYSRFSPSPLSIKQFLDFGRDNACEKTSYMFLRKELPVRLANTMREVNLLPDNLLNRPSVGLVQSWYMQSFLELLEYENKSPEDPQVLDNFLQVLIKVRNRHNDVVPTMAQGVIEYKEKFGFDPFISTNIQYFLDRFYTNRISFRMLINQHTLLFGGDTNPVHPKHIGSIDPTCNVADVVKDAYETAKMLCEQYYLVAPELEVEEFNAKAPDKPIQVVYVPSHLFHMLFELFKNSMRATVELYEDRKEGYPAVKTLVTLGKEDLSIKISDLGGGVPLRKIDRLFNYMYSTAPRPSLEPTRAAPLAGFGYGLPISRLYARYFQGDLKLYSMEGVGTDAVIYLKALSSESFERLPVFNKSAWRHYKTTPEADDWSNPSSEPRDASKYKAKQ

PSN1 [8] = experiment: Induction of reactive oxygen species production in human PSN1 cells assessed as increase in cellular hydrogen peroxide formation at 5 uM by CM-H2DCFDA staining based analysis; type: functional, cell-based
PSN1 [9] = experiment: Induction of mitochondrial membrane potential loss in human PSN1 cells at IC50 incubated for 60 mins by fluorescence based analysis; type: functional
Heat shock protein HSP90 = Heat shock protein HSP90 (Homo sapiens, UniProt P07900+P08238); experiment: Inhibition of human recombinant HSP90 at 1.5 uM incubated for 30 mins by fluorescence polarization based analysis relative to control; type: protein assay
PSN1 [10] = experiment: Downregulation of PDHA1 phosphorylation in human PSN1 cells at IC50 incubated for 24 hrs by ELISA assay; type: functional, cell-based
[11] = target: [Pyruvate dehydrogenase (acetyl-transferring)] kinase isozyme 4, mitochondrial (Homo sapiens) (UniProt Q16654); experiment: Inhibition of PDK4 (unknown origin) at 1.5 uM incubated for 30 mins followed by substrate addition measured after 60 mins in presence of ATP by ADP-Glo luminescent assay relative to control; settings: time 90.0 min
Sequence of [Pyruvate dehydrogenase (acetyl-transferring)] kinase isozyme 4, mitochondrial (Homo sapiens) (Q16654 whole entry, looked up): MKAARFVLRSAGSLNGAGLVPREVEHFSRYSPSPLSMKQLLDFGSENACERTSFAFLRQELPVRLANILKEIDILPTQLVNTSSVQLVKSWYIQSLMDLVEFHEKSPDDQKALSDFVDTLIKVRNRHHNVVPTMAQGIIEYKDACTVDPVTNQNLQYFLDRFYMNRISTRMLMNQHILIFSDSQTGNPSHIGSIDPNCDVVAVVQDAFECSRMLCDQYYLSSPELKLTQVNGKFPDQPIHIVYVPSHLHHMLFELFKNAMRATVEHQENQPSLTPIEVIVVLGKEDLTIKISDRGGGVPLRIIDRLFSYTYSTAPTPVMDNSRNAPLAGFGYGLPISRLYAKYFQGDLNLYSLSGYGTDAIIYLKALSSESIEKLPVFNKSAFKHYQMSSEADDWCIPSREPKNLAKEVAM

PSN1 [12] = experiment: Inhibition of PDK in human PSN1 cells expressing KRAS mutant assessed as decrease in lactate production levels at IC50 incubated for 60 mins by colorimetric analysis; type: cell-based
[13] = target: T1, [Pyruvate dehydrogenase (acetyl-transferring)] kinase isozyme 1, mitochondrial; experiment: Inhibition of PDK1 (unknown origin) incubated for 30 mins followed by substrate addition measured after 60 mins in presence of ATP by ADP-Glo luminescent assay
PSN1 [14] = experiment: Induction of reactive oxygen species production in human PSN1 cells assessed as decrease in total cellular sulfhydryls level at IC50 incubated for 24 hrs by DTNB reagent based spectrophotometric analysis; type: functional, cell-based
PSN1 [15] = experiment: Inhibition of PDK in human PSN1 cells expressing KRAS mutant assessed as increase in cellular oxygen consumption at IC50 incubated for 60 mins by fluorescence based analysis; type: cell-based

Compound	inhibition [1]	residual activity [2]	IC50 (BXPC-3 [3])	IC50 (BXPC-3 [4])	IC50 (PSN1 [5])	IC50 (PSN1 [6])	inhibition [7]	Activity (PSN1 [8])	Activity (PSN1 [9])	inhibition (Heat shock protein HSP90)	Activity (PSN1 [10])	inhibition [11]	inhibition (PSN1 [12])	IC50 [13]	Activity (PSN1 [14])	inhibition (PSN1 [15])
Nc1nnc(-c2c[nH]c3ccc(Br)cc23)c(-c2c[nH]c3ncccc23)n1	100%	40%														
Nc1nnc(-c2c[nH]c3ccc(Br)cc23)c(-c2c[nH]c3ncc(Br)cc23)n1	100%	40%	1.4 µM	54.5 µM	21.6 µM	1.5 µM										
COc1ccc2[nH]cc(-c3nnc(N)nc3-c3cn(C)c4ncccc34)c2c1	100%	40%	1.5 µM	10.7 µM	12.2 µM	2.1 µM										
COc1ccc2[nH]cc(-c3nc(N)nnc3-c3c[nH]c4ncc(Br)cc34)c2c1	100%	40%	4.4 µM	31.2 µM	17.2 µM	4.7 µM	100%									
Cn1cc(-c2nc(N)nnc2-c2c[nH]c3ccccc23)c2cccnc21	100%	40%	1.9 µM	15.5 µM	13.2 µM	2.1 µM										
Cn1cc(-c2nnc(N)nc2-c2c[nH]c3ccccc23)c2cccnc21	100%	40%	1.8 µM	16.1 µM	20.1 µM	2.2 µM										
CCCCCC[C@H]1C(=O)O[C@H](C)[C@H](NC(=O)c2cccc(NC=O)c2O)C(=O)O[C@@H](C)[C@@H]1OC(=O)CC(C)C								Active								
COc1ccc2[nH]cc(-c3nc(N)nnc3-c3c[nH]c4ncccc34)c2c1	100%	40%	2.1 µM	34.2 µM	35.2 µM	2.2 µM	100%									
Cn1cc(-c2nnc(N)nc2-c2c[nH]c3ccccc23)c2cc(Br)cnc21	100%	40%	3.2 µM	34.2 µM	31.8 µM	4.6 µM										
Cn1cc(-c2nc(N)nnc2-c2c[nH]c3ccc(Br)cc23)c2cccnc21	100%	40%	2.5 µM	19.9 µM	24.1 µM	3.6 µM	100%									
Cn1cc(-c2nc(N)nnc2-c2c[nH]c3ccccc23)c2cc(Br)cnc21	100%	40%	2.7 µM	33.6 µM	31.2 µM	4.7 µM										
Cn1cc(-c2nc(N)nnc2-c2c[nH]c3ccc(F)cc23)c2cccnc21	100%	40%	2.2 µM	22.2 µM	20.3 µM	3.2 µM	100%									
Nc1nnc(-c2c[nH]c3ncc(Br)cc23)c(-c2c[nH]c3ccc(F)cc23)n1	100%	40%	2.5 µM	19.7 µM	28.3 µM	2.9 µM	100%									
Cn1cc(-c2nc(N)nnc2-c2c[nH]c3ccc(Br)cc23)c2cc(Br)cnc21	100%	0%	0.7 µM	6 µM	24.2 µM	1.1 µM		Active	Active	40%	Active	0%	Active	60 nM	Active	Active
Nc1nnc(-c2c[nH]c3ncc(Br)cc23)c(-c2c[nH]c3ccc(Br)cc23)n1	100%	40%	2.1 µM	28.7 µM	23.5 µM	4.6 µM	100%									
Nc1nnc(-c2c[nH]c3ccc(F)cc23)c(-c2c[nH]c3ncc(Br)cc23)n1	100%	40%	1.7 µM	14.9 µM	19.2 µM	1.3 µM	100%									
Cn1cc(-c2nnc(N)nc2-c2c[nH]c3ccc(F)cc23)c2cccnc21	100%	40%	1.6 µM	14.6 µM	16 µM	1.6 µM	100%									
Nc1nnc(-c2c[nH]c3ncccc23)c(-c2c[nH]c3ccc(Br)cc23)n1	100%	40%	1.8 µM	16.4 µM	15.1 µM	1.6 µM										
Nc1nnc(-c2c[nH]c3ncccc23)c(-c2c[nH]c3ccc(F)cc23)n1	100%	40%	2.6 µM	19.7 µM	20.1 µM	3.2 µM										
Nc1nnc(-c2c[nH]c3ccc(F)cc23)c(-c2c[nH]c3ncccc23)n1	100%	40%	1.2 µM	22.6 µM	22.3 µM	1.6 µM										
Cn1cc(-c2nc(N)nnc2-c2c[nH]c3ccc(F)cc23)c2cc(Br)cnc21		60%	0.2 µM	5 µM	8.3 µM	2.3 µM		Active	Active	60%	Active	60%	Active	150 nM	Active	Active
COc1ccc2[nH]cc(-c3nnc(N)nc3-c3c[nH]c4ncc(Br)cc34)c2c1	100%	40%	3.2 µM	27.5 µM	22.1 µM	3.4 µM										
O=C(O)C(Cl)Cl [DICHLOROACETIC ACID]			> 1000 µM	> 1000 µM	> 1000 µM	> 1000 µM										
O=C(c1ccccc1)C(Cl)Cl			10.2 µM	78.2 µM	87.4 µM	36.5 µM					Active		Active	> 100000 nM		Active
COc1ccc2[nH]cc(-c3nc(N)nnc3-c3cn(C)c4ncc(Br)cc34)c2c1	100%	40%	0.3 µM	6.3 µM	8.4 µM	2.6 µM	100%			0%						
COc1ccc2[nH]cc(-c3nnc(N)nc3-c3c[nH]c4ncccc34)c2c1	100%	40%														
Nc1nnc(-c2c[nH]c3ccccc23)c(-c2c[nH]c3ncccc23)n1	100%	40%	1.5 µM	23.2 µM	14.3 µM	1.8 µM	100%									
Cn1cc(-c2nnc(N)nc2-c2c[nH]c3ccc(Br)cc23)c2cccnc21	100%	40%	2.3 µM	25.9 µM	20.9 µM	2.9 µM	100%									
COc1ccc2[nH]cc(-c3nc(N)nnc3-c3cn(C)c4ncccc34)c2c1	100%	40%	1.4 µM	13.6 µM	13.6 µM	2.3 µM										

— ChEMBL document CHEMBL5346893, “1,2,4-Amino-triazine derivatives as pyruvate dehydrogenase kinase inhibitors: Synthesis and pharmacological evaluation” (Eur J Med Chem, 2023)
